US20110136880A1, “Latrunculin-Based Macrolides and Their Uses” (priority 2009, published 2011)

Tested on: array of kinases
Test: Kinase profiling
Type: binding
Conditions: any kinase tested
Method: Latrunculins B and H (compounds 20 and 14, respectively) were tested in a panel of assays including ApoE secretion, anti-angiogenesis, G2/M, Wnt pathway, insulin secretion, and an array of kinase profiling. The G2/M assays include HeLa cell proliferation, apoptosis, DNA content, and condensation, cyclin B, and phosphor-histone H3. […] Alkaline phosphatases may perhaps be a target of the anti-invasive latrunculin 11.

SMILES: C/C1=C/C(=O)O[C@@H]2C[C@@H](CC[C@H](C)/C=C\C=C\CC1)O[C@@](O)([C@@H]1CSC(=O)N1CO)C2 [Compound 14, N-Hydroxymethyllatrunculin A]
- affinity toward kinases: Neither compound 20 nor compound 14 showed affinity toward any kinase tested
